From patent US9216999B2, “Substituted pyrrolo[2,3-h][1,6]naphthyridines and compositions thereof as JAK inhibitors” (priority 2011, dated 2015)
Like-named read-outs stand apart in the source and are kept apart here.

Tests used:
JAK3 [1] = target: T1, JAK3 (Homo sapiens (Human), UniProt P52333); assay: JAK3 enzyme assay (Assay Example^b 1)
JAK1 = JAK1 (Homo sapiens (Human), UniProt P23458); assay: Enzyme assay (Assay Example^a 1), JAK1; assay type: biochemical; settings: ATP 100 μM
JAK2 = JAK2 (Homo sapiens (Human), UniProt O60674); assay: Enzyme assay (Assay Example^a 1), JAK2; assay type: biochemical
JAK3 [2] = target: T1, JAK3; assay: Enzyme assay (Assay Example^a 1), JAK3; assay type: biochemical
Tyk2 = Tyk2 (Homo sapiens (Human), UniProt P29597); assay: Enzyme assay (Assay Example^a 1), Tyk2; assay type: biochemical; settings: ATP 100 μM
Tyk2, sequence (P29597 whole entry): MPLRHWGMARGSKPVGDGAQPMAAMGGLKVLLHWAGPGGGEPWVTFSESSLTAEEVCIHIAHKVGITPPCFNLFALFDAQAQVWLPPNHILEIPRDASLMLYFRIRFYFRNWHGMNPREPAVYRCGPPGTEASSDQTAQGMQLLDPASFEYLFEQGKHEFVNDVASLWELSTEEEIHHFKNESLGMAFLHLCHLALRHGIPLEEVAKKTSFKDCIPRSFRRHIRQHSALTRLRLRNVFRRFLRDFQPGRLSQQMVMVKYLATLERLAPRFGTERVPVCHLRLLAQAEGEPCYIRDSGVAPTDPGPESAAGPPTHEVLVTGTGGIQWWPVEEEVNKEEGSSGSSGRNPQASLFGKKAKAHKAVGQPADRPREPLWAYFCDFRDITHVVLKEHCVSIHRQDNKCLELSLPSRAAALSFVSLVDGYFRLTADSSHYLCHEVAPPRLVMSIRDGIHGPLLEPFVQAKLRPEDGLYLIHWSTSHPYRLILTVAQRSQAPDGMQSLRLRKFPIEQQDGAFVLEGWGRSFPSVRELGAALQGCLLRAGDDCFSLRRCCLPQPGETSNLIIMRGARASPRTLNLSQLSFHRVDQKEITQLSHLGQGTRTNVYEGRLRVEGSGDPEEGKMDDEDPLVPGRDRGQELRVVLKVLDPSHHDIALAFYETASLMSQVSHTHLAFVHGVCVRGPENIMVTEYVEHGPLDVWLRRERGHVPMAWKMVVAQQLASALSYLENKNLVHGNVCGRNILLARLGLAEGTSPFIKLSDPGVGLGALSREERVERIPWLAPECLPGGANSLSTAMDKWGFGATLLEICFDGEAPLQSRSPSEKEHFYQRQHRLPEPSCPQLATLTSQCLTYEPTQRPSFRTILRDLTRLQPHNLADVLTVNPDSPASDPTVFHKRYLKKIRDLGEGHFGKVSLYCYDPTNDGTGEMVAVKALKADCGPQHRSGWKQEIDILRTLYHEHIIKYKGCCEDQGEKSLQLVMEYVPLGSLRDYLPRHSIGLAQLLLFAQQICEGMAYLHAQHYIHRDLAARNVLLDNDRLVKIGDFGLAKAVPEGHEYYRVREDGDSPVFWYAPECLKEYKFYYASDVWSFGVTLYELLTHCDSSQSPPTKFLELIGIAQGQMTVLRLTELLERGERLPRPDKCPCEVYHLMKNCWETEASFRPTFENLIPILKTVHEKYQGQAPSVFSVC

[3] = IC50 (μM) JAK3, Table^b 80, ATP 100 μM

T1 sequence (P52333 whole entry): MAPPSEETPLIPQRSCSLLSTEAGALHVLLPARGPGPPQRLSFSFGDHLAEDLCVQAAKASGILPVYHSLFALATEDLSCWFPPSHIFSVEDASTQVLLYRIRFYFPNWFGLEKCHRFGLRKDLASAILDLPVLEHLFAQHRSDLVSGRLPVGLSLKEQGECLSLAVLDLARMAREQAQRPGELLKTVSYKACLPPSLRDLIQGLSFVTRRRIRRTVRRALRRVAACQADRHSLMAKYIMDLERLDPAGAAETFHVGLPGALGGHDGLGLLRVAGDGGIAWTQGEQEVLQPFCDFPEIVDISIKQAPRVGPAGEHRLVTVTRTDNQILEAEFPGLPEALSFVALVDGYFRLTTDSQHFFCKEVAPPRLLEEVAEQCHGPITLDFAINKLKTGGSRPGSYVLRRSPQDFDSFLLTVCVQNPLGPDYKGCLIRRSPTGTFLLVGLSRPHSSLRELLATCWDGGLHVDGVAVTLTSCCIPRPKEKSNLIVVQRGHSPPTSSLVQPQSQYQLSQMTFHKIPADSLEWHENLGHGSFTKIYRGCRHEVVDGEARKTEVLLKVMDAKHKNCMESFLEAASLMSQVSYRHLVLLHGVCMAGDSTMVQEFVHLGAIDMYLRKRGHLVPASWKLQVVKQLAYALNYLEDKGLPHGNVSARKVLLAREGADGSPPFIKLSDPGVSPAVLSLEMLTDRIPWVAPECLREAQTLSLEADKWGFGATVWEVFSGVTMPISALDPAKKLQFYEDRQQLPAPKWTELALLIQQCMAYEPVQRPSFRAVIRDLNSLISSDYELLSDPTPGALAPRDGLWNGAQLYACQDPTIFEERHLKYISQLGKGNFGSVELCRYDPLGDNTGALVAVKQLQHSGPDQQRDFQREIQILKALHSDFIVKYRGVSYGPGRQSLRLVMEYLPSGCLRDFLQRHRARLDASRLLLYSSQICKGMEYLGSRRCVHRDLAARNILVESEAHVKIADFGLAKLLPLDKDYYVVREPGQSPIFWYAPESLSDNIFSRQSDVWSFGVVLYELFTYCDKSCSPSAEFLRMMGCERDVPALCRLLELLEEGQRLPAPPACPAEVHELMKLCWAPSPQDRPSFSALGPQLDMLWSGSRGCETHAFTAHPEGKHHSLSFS

Structure (SMILES) | IC50 (JAK1) [µM] | IC50 (JAK2; ATP 100 μM) [µM] | IC50 (JAK3 [2]; ATP 100 μM) [µM] | IC50 (Tyk2) [µM] | also measured
O=c1ccn(C2CCN(Cc3ccc(Br)s3)CC2)c2c1cnc1[nH]ccc12 [compound 81] | – | – | – | – | IC50 (JAK3 [1]; [3]): 0.031 µM
O=c1[nH]c(=O)n(C2CCN(CCC3CCOCC3)CC2)c2c1cnc1[nH]ccc12 [compound 93] | – | – | – | – | IC50 (JAK3 [1]; IC50 (μM) JAK3, ATP 100 μM): > 1 µM
CCC(C)CN1CCC(n2c(=O)[nH]c(=O)c3cnc4[nH]ccc4c32)CC1 (racemic) [compound 92] | – | – | – | – | IC50 (JAK3 [1]; IC50 (μM) JAK3, ATP 100 μM): > 1 µM
O=c1ccn(C2CCN(Cc3ccc([N+](=O)[O-])o3)CC2)c2c1cnc1[nH]ccc12 [compound 72] | – | – | – | – | IC50 (JAK3 [1]; [3]): > 1 µM
O=c1ccn(C2CCN(Cc3ccc(C(F)(F)F)o3)CC2)c2c1cnc1[nH]ccc12 [compound 71] | – | – | – | – | IC50 (JAK3 [1]; [3]): 0.46 µM
O=c1ccn(C2CCN(Cc3ccccc3)CC2)c2c1cnc1[nH]ccc12 [compound 54] | – | – | – | – | IC50 (JAK3 [1]; [3]): 0.47 µM
C[C@@H]1CCN(S(=O)(=O)c2ccccc2C#N)C[C@@H]1n1ccc(=O)c2cnc3[nH]ccc3c21 (racemic) [compound 25] | – | – | – | – | IC50 (JAK3 [1]; [3]): 0.07 µM
N#CCC1CN(C[C@H]2CC[C@H](n3c(=O)[nH]c(=O)c4cnc5[nH]ccc5c43)CC2)C1 [compound 124] | – | – | – | – | IC50 (JAK3 [1]; IC50 (μM) JAK3, ATP 100 μM): > 1 µM
CC(C#N)n1c(=O)c2cnc3[nH]ccc3c2n(C2CCCCC2)c1=O (racemic) [compound 146] | – | – | – | – | IC50 (JAK3 [1]; IC50 (μM) JAK3, ATP 100 μM): > 1 µM
C[C@@H]1CCN(C(=O)c2cccc(C(F)(F)F)c2)C[C@@H]1n1ccc(=O)c2cnc3[nH]ccc3c21 (racemic) [compound 31] | – | – | – | – | IC50 (JAK3 [1]; [3]): > 1 µM
CN(C)C(=O)Cn1c(=O)c2cnc3[nH]ccc3c2n(C2CCCCC2)c1=O [compound 152] | – | – | – | – | IC50 (JAK3 [1]; IC50 (μM) JAK3, ATP 100 μM): 0.48 µM
N#CCCN(CCC#N)C1CCC(c2nnn3cnc4[nH]ccc4c23)CC1 (centres unmarked) [compound 380, 3,3′-{[4-(7H-pyrrolo[3,2-e][1,2,3]triazolo[1,5-c]pyrimidin-1-yl)cyclohexyl]azanediyl}dipropanenitrile] | 0.002 | 0.0025 | 0.2 | 0.028 | –
O=C(Nc1ccc(F)cc1)[C@H]1CC[C@H](c2nnn3cnc4[nH]ccc4c23)CC1 [compound 206, trans-N-(4-Fluorophenyl)-4-(7H-pyrrolo[3,2-e][1,2,3]triazolo[1,5-c]pyrimidin-1-yl)cyclohexanecarboxamide] | – | – | – | – | IC50 (JAK1; Table^a 154): 0.27 µM; IC50 (JAK2; ATP 100 μM, Table^a 154): > 1 µM; IC50 (JAK3 [2]; ATP 100 μM, Table^a 154): > 1 µM; IC50 (Tyk2; Table^a 154): > 1 µM
FC(F)(F)CCNC[C@H]1CC[C@H](c2nnn3cnc4[nH]ccc4c23)CC1 [compound 256, N-{[trans-4-(7H-pyrrolo[3,2-e][1,2,3]triazolo[1,5-c]pyrimidin-1-yl)cyclohexyl]methyl}-3,3,3-trifluoropropan-1-amine] | 0.015 | 0.062 | 0.99 | 0.27 | –
CN(C)[C@H]1CC[C@H](c2nnn3cnc4[nH]ccc4c23)CC1 [397b, trans-N,N-dimethyl-4-(7H-pyrrolo[3,2-e][1,2,3]triazolo[1,5-c]pyrimidin-1-yl)cyclohexanamine] | 0.023 | 0.21 | > 1 | 0.8 | –
OCCN(C[C@H]1CC[C@H](c2nnn3cnc4[nH]ccc4c23)CC1)C1CCCCC1 [compound 306, 2-({[trans-4-(7H-pyrrolo[3,2-e][1,2,3]triazolo[1,5-c]pyrimidin-1-yl)cyclohexyl]methyl}(cyclohexyl)amino)ethanol] | 0.015 | 0.054 | > 1 | 0.62 | –
N#C[C@H]1CC[C@H](c2nnn3cnc4[nH]ccc4c23)CC1 [compound 430, trans-4-(7H-Pyrrolo[3,2-e][1,2,3]triazolo[1,5-c]pyrimidin-1-yl)cyclohexanecarbonitrile] | 0.0086 | 0.049 | > 1 | 0.41 | –
CN(C[C@H]1CC[C@H](c2nnn3cnc4[nH]ccc4c23)CC1)c1ccc(C#N)cc1 [compound 108] | – | – | – | – | IC50 (JAK1; Table^a 154): 0.0039 µM; IC50 (JAK2; ATP 100 μM, Table^a 154): 0.024 µM; IC50 (JAK3 [2]; ATP 100 μM, Table^a 154): 0.58 µM; IC50 (Tyk2; Table^a 154): 0.58 µM

Structure (SMILES) | IC50 (JAK1) [µM] | IC50 (JAK2; ATP 100 μM) [µM] | IC50 (JAK3 [2]; ATP 100 μM) [µM] | IC50 (Tyk2) [µM] | also measured
FC(F)C(F)(F)Oc1ccc(CN2CCC(c3nnn4cnc5[nH]ccc5c34)CC2)cc1 [compound 169, 1-{1-[4-(1,1,2,2-tetrafluoroethoxy)benzyl]piperidin-4-yl}-7H-pyrrolo[3,2-e][1,2,3]triazolo[1,5-c]pyrimidine] | – | – | – | – | IC50 (JAK1; Table^a 154): 0.005 µM; IC50 (JAK2; ATP 100 μM, Table^a 154): 0.052 µM; IC50 (JAK3 [2]; ATP 100 μM, Table^a 154): 0.58 µM; IC50 (Tyk2; Table^a 154): > 1 µM
N#CCC(=O)N(C[C@H]1CC[C@H](c2nnn3cnc4[nH]ccc4c23)CC1)C1CC1 [compound 409, N-{[trans-4-(7H-pyrrolo[3,2-e][1,2,3]triazolo[1,5-c]pyrimidin-1-yl)cyclohexyl]methyl}-2-cyano-N-cyclopropylacetamide] | 0.019 | 0.032 | 0.92 | 0.84 | –
N#C[C@H]1CCN(C(=O)[C@H]2CC[C@H](c3nnn4cnc5[nH]ccc5c34)CC2)C1 [compound 357, (S)-1-[trans-4-(7H-pyrrolo[3,2-e][1,2,3]triazolo[1,5-c]pyrimidin-1-yl)cyclohexanecarbonyl]pyrrolidine-3-carbonitrile] | 0.067 | 0.33 | > 1 | 0.87 | –
Fc1cc(NC[C@H]2CC[C@H](c3nnn4cnc5[nH]ccc5c34)CC2)cc(F)c1F [compound 250, N-{[trans-4-(7H-pyrrolo[3,2-e][1,2,3]triazolo[1,5-c]pyrimidin-1-yl)cyclohexyl]methyl}-3,4,5-trifluoroaniline] | 0.031 | 0.18 | > 1 | > 1 | –
FC(F)(F)c1ccc(CN[C@H]2CC[C@@H](c3nnn4cnc5[nH]ccc5c34)CC2)cc1 [138a] | – | – | – | – | IC50 (JAK1; Table^a 154): 0.023 µM; IC50 (JAK2; ATP 100 μM, Table^a 154): 0.74 µM; IC50 (JAK3 [2]; ATP 100 μM, Table^a 154): > 1 µM; IC50 (Tyk2; Table^a 154): 0.25 µM
N#Cc1ccc(CN2CCC(c3nnn4cnc5[nH]cc(Cl)c5c34)CC2)cc1 [compound 377, 4-{[4-(9-Chloro-7H-pyrrolo[3,2-e][1,2,3]triazolo[1,5-c]pyrimidin-1-yl)piperidin-1-yl]methyl}benzonitrile] | 0.0045 | 0.017 | 0.054 | > 1 | –
CN1CCC(c2nnn3cnc4[nH]ccc4c23)CC1 [compound 216, 1-(1-methylpiperidin-4-yl)-7H-pyrrolo[3,2-e][1,2,3]triazolo[1,5-c]pyrimidine] | 0.38 | – | > 1 | > 1 | IC50 (JAK2): > 1 µM
N#Cc1ccc(N2CCC(c3nnn4cnc5[nH]ccc5c34)CC2)cc1 [compound 376, 4-[4-(7H-Pyrrolo[3,2-e][1,2,3]triazolo[1,5-c]pyrimidin-1-yl)piperidin-1-yl]benzonitrile] | 0.019 | 0.19 | > 1 | > 1 | –
O=c1[nH]c(C2CCCCC2)c2c3cc[nH]c3ncn12 [compound 9] | 0.03 | 0.046 | – | 0.078 | IC50 (JAK3 [2]): 0.43 µM
Clc1ccc(NC2CCC(c3nnn4cnc5[nH]ccc5c34)CC2)cc1 (centres unmarked) [compound 205, N-[4-(7H-Pyrrolo[3,2-e]r[1,2,3]triazolo[1,5-c]pyrimidin-1-yl)cyclohexyl]-4-chloroaniline] | – | – | – | – | IC50 (JAK1; Table^a 154): 0.026 µM; IC50 (JAK2; ATP 100 μM, Table^a 154): 0.25 µM; IC50 (JAK3 [2]; ATP 100 μM, Table^a 154): > 1 µM; IC50 (Tyk2; Table^a 154): 0.75 µM
CC(C)(C)OC(=O)N[C@H]1CCN(C[C@H]2CC[C@H](c3nnn4cnc5[nH]ccc5c34)CC2)C1 [compound 307, tert-butyl ((S)-1-{[trans-4-(7H-pyrrolo[3,2-e][1,2,3]triazolo[1,5-c]pyrimidin-1-yl)cyclohexyl]methyl}pyrrolidin-3-yl)carbamate] | 0.0066 | 0.26 | > 1 | > 1 | –
OC1(c2ccc(Cl)c(C(F)(F)F)c2)CCN(C[C@H]2CC[C@H](c3nnn4cnc5[nH]ccc5c34)CC2)CC1 [compound 309, 1-{[trans-4-(7H-pyrrolo[3,2-e][1,2,3]triazolo[1,5-c]pyrimidin-1-yl)cyclohexyl]methyl}-4-[4-chloro-3-(trifluoromethyl)phenyl]piperidin-4-ol] | 0.0076 | – | > 1 | 0.31 | IC50 (JAK2): 0.097 µM
c1cc2c(ncn3nnc([C@H]4CC[C@H](CN5CCCC5)CC4)c23)[nH]1 [compound 287, 1-[trans-4-(pyrrolidin-1-ylmethyl)cyclohexyl]-7H-pyrrolo[3,2-e][1,2,3]triazolo[1,5-c]pyrimidine] | 0.0065 | 0.077 | > 1 | 0.33 | –
Fc1cnccc1CN1CCC(c2nnn3cnc4[nH]ccc4c23)CC1 [compound 161, 1-{1-[(3-fluoropyridin-4-yl)methyl]piperidin-4-yl}-7H-pyrrolo[3,2-e][1,2,3]triazolo[1,5-c]pyrimidine] | – | – | – | – | IC50 (JAK1; Table^a 154): 0.0034 µM; IC50 (JAK2; ATP 100 μM, Table^a 154): 0.011 µM; IC50 (JAK3 [2]; ATP 100 μM, Table^a 154): 0.31 µM; IC50 (Tyk2; Table^a 154): 0.14 µM
FC1(F)Oc2cccc(CN3CCC(c4nnn5cnc6[nH]ccc6c45)CC3)c2O1 [compound 229, 1-{1-[(2,2-difluorobenzo[d][1,3]dioxol-4-yl)methyl]piperidin-4-yl}-7H-pyrrolo[3,2-e][1,2,3]triazolo[1,5-c]pyrimidine] | 0.039 | 0.087 | > 1 | > 1 | –
OC[C@H]1CCCN1C[C@H]1CC[C@H](c2nnn3cnc4[nH]ccc4c23)CC1 [compound 265, ((R)-1-{[trans-4-(7H-pyrrolo[3,2-e][1,2,3]triazolo[1,5-c]pyrimidin-1-yl)cyclohexyl]methyl}pyrrolidin-2-yl)methanol] | 0.046 | 0.18 | > 1 | > 1 | –
Brc1ccc(CN2CCC(c3nnn4cnc5[nH]ccc5c34)CC2)s1 [compound 238, 1-{1-[(5-bromothiophen-2-yl)methyl]piperidin-4-yl}-7H-pyrrolo[3,2-e][1,2,3]triazolo[1,5-c]pyrimidine] | 0.00079 | 0.0046 | 0.055 | 0.11 | –
